A word on the IC50: it is the concentration that inhibits the measured activity by half.

One series concerns Leishmania braziliensis. Description: Antileishmanial activity against Leishmania (Viannia) braziliensis promastigotes. Format: functional, organism-based.
Series [1] has as its system Trypanosoma cruzi. Description: Antitrypanosomal activity against Trypanosoma cruzi Tulahuen 2 assessed as inhibition of epimastigotes growth at 50 uM. To be noted: read-out: GI. The class given is functional.
In a further series the test system is LLC-MK2. Briefly: Cytotoxicity against rhesus monkey LLC-MK2 cells after 48 hrs. Format: cell-based. Conditions: Macaca mulatta, LLC-MK2, 48 h.
Series [2] is described as follows: Selectivity index, ratio of IC50 for rhesus monkey LLC-MK2 cells to IC50 for Leishmania amazonensis promastigotes. The class given is toxicity, cell-based. Conditions: read-out: Ratio IC50.
Another series concerns Leishmania amazonensis. Description: Antileishmanial activity against Leishmania amazonensis promastigotes after 48 hrs. The class given is functional, organism-based.
The test system of series [3] is Trypanosoma cruzi. Briefly: Antitrypanosomal activity against Trypanosoma cruzi Tulahuen 2 assessed as inhibition of epimastigotes growth. The class given is functional, organism-based.
Series [4] can be described thus: Selectivity index, ratio of IC50 for rhesus monkey LLC-MK2 cells to IC50 for Leishmania (Viannia) braziliensis promastigotes. Format: toxicity, cell-based. Conditions: read-out: Ratio IC50.
A short description of series [5]: Selectivity index, ratio of IC50 for rhesus monkey LLC-MK2 cells to IC50 for Trypanosoma cruzi Tulahuen 2 epimastigotes. Format: toxicity, cell-based. To be noted: read-out: Ratio IC50.
The subject of another series is Leishmania sp. Description: Antileishmanial activity against Leishmania sp. by MTT assay. The class given is functional, organism-based.

Bounds are passed on as bounds.

As for `CC1=CC[C@H](C(C)CCNc2ccccn2)CC1` (some centres undefined), 27 µM corresponded to half-maximal inhibition in the series on Leishmania braziliensis (IC50).

Turning to `CCCNCCC(C)[C@H]1CC=C(C)CC1` (mixture of isomers), in the series on Trypanosoma cruzi [1], the inhibition of growth at 50 µM turned out to be 21%. The IC50 in the series on LLC-MK2 is 192 µM; in the series on Leishmania amazonensis, 53.5 µM; in the series with Trypanosoma cruzi [3], over 50 µM; in the series with Leishmania braziliensis, 17.2 µM. The selectivity ratio in series [2] was 3.6; in [4], 10.

`CC1=CC[C@H](C(C)CCNC(C)C)CC1` (mixture of isomers) gave an IC50 with Leishmania braziliensis of 254 µM.

On to `CC1=CC[C@H](C(C)CCNCc2ccccc2)CC1` (mixture of isomers), for which the inhibition of growth at 50 µM in the series on Trypanosoma cruzi [1] amounted to 53.5%. Besides, the IC50 in the series on Trypanosoma cruzi [3] came to 50 µM; in the series with Leishmania braziliensis, 258 µM.

Turning to `CC1=CC[C@H](C(C)CCN2CCOCC2)CC1` (mixture of isomers), in the series with Trypanosoma cruzi [1], the inhibition of growth at 50 µM came out at 20.7%. Moreover, the IC50 in the series with Trypanosoma cruzi [3] is over 50 µM; in the series on Leishmania braziliensis, 1030 µM.

As to `CC1=CC[C@H](C(C)CCN2CCNCC2)CC1` (mixture of isomers), the inhibition of growth at 50 µM with Trypanosoma cruzi [1] came out at 82.4%. The IC50 came to 19.2 µM with Trypanosoma cruzi [3] and 270 µM with Leishmania braziliensis.

With `CCCN(CCC(C)[C@H]1CC=C(C)CC1)S(=O)(=O)c1ccc(C)cc1` (mixture of isomers), the IC50 with LLC-MK2 is over 1010 µM; in the series on Leishmania amazonensis, 196 µM; in the series on Leishmania braziliensis it was 12.1 µM. The selectivity ratio in series [2] is over 5.2; in [4], 10.

Take `CC1=CC[C@H](C(C)CCNc2ccccc2)CC1` (mixture of isomers): in the series with Trypanosoma cruzi [1], the inhibition of growth at 50 µM turned out to be 70.5%. Further, the IC50 in the series with LLC-MK2 turned out to be 312 µM; with Leishmania amazonensis it was 89.8 µM; in the series with Trypanosoma cruzi [3] it was 29.5 µM; in the series with Leishmania braziliensis it was 11.5 µM. Besides, the selectivity ratio in series [2] turned out to be 3.5; in series [5], 10.4; in [4], 10.

As for `CC1=CC[C@H](C(C)CCNc2ccc(Cl)cc2)CC1` (mixture of isomers), in the series on Leishmania braziliensis, the IC50 was 58.4 µM.

The compound `COc1ccc(NCCC(C)[C@H]2CC=C(C)CC2)cc1` (mixture of isomers) showed an IC50 in the series on Leishmania braziliensis of 57.6 µM.

Turning to `CC1=CC[C@H](C(C)CCNc2ccc(C)cc2)CC1` (mixture of isomers), it took 28 µM to reach half-maximal inhibition in the series with Leishmania braziliensis (IC50).

Consider `CC1=CC[C@H](C(C)CCNCc2ccco2)CC1` (mixture of isomers), for which the inhibition of growth at 50 µM in the series with Trypanosoma cruzi [1] is 51.4%. The IC50 with Trypanosoma cruzi [3] stood at 50 µM; in the series on Leishmania braziliensis it was 35.6 µM.

Consider `CC1=CC[C@H](C(C)CCNc2cccc(C(F)(F)F)c2)CC1` (mixture of isomers), for which the IC50 in the series on Leishmania braziliensis was 84.6 µM.

As to `CC1=CC[C@H](C(C)CCN(C)c2ccccc2)CC1` (mixture of isomers), the inhibition of growth at 50 µM in the series with Trypanosoma cruzi [1] came to 0%. In addition, the results for the half-maximal inhibitory concentration (IC50) in the series with Trypanosoma cruzi [3] and in the series on Leishmania braziliensis were over 50 µM and 54.5 µM, respectively.

`CC1=CC[C@H](C(C)CCNCCO)CC1` (mixture of isomers): the inhibition of growth at 50 µM with Trypanosoma cruzi [1] amounted to 41.8%. The IC50 with LLC-MK2 is 587 µM; in the series on Leishmania amazonensis, 174 µM; in the series with Trypanosoma cruzi [3], over 50 µM; in the series with Leishmania braziliensis, 23.2 µM. Besides, the selectivity ratio was determined as 3.4 in [2] and 10 in series [4].

Turning to `C=C(C)[C@H]1CC=C(C)CC1` [D-LIMONENE], the inhibition of growth at 50 µM in the series on Trypanosoma cruzi [1] was found to be 0%. Further, the IC50 in the series on Trypanosoma cruzi [3] was over 50 µM; in the series on Leishmania sp., 185 µM; in the series with Leishmania braziliensis, 876 µM.

Take `CC1CS(=O)(=O)CCN1/N=C/c1ccc([N+](=O)[O-])o1` (centres undefined) [NIFURTIMOX]: in the series with Trypanosoma cruzi [1], the inhibition of growth at 50 µM was determined as 100%.

In turn, `N=C(N)c1ccc(OCCCCCOc2ccc(C(=N)N)cc2)cc1` [PENTAMIDINE] gave an IC50 with Leishmania braziliensis of 48.5 µM.
